Test results: patent US20220162240A1, “MITOCHONDRIA-TARGETED ISOKETAL/ISOLEVUGLANDIN SCAVENGERS” (Vanderbilt University, priority 2019, published 2022)
Entries after “also recorded” stand apart in the source; their conditions may differ.

Tests used:
mitochondrial matrix = conditions: TPP conjugate, given as example; cited from earlier work
[1] = test system: human aortic endothelial cells (HAEC); experiment: Mitochondrial superoxide in HAEC incubated with Ang II plus TNFα (MitoSOX/HPLC); type: cell-based; conditions: 50 nM, Ang II + TNFα 24 hours, MitoSOX/HPLC
Procedure: (§1) Free radical oxidation of arachidonic acid produces highly reactive isolevuglandins (isoLG) which causes mitochondrial dysfunction by opening of the mitochondrial permeability transition pore (mPTP). […] The functional role of mitochondrial isoLG was tested in vivo using angiotensin II model of hypertension. C57Bl/6J mice were infused with angiotensin II (0.7 mg/kg/day) or saline (Sham) and received mito2HOBA in the drinking water (0.1 g/L). […] Decrease of NO is a hallmark of endothelial dysfunction in hypertension due to vascular oxidative stress.
(§2) Mitochondrial O2^• and cardiolipin oxidation (specific marker of mitochondrial dysfunction and oxidative stress) in cultured human aortic endothelial cells (HAEC) were incubated with Ang II and TNFα.

[2] = test system: mitochondrial isoLG protein adducts; experiment: Western blot of isoLG adducts and CypD-isoLG (D11 antibody) in aorta mitochondria of Ang II-infused mice; type: in vivo
Procedure: (§3) (A) Blood pressure in C57Bl/6J mice infused with saline (Sham) or Ang II ([…]). Mito2HOBA was supplemented in drinking water (0.1 g/L). (B) Western blot of aorta mitochondria for isoLG adducts (D11 antibody), CypD, GCN5L1, Sirt3 and CypD acetylation (CypD i.p. and anti-Acetyl-K WB). Results are mean±SEM. *P<0.01 vs Sham, **P<0.01 vs Ang II (n=8).
FIG. 18 is a western blot analysis of isoLG protein adducts in mitochondria isolated from aorta dissected from C57Bl/6J mice infused with Ang II and treated with mito2HOBA (A). CypD-isoLG modification was determined by CypD immunoprecipitation and Western blot with anti-isoLG D11 antibody (B).
(§4) Sham or Ang II-infused mice were supplemented with mito2HOBA in the drinking water (0.1 g/L) or plain water. […] Following 14 days of Ang II infusion, mice were sacrificed, aortas were isolated for Western blot studies. […] This causes an imbalance between mitochondrial acetylation and deacetylation pathways leading to hyperacetylation of mitochondrial proteins measured by Ac-K and CypD hyperacetylation.
The potential CypD-isoLG adduct formation was determined by CypD immunoprecipitation and Western blot with anti-isoLG D11 antibody.

[3] = test system: mitochondrial isoLG protein adducts; experiment: Western blot of isoLG adducts (D11 antibody) in heart mitochondria of Ang II-infused mice; type: in vivo; conditions: 0.1 g/L in drinking water, 14 days
Procedure: Mito2HOBA was supplemented in drinking water (0.1 g/L). […] Results are mean±SEM. *P<0.01 vs Sham, **P<0.01 vs Ang II (n=8).
as §1

endothelial NO = experiment: Endothelial NO by ESR and Fe(DETC)2 in Ang II-infused mice; type: in vivo; conditions: 0.1 g/L in drinking water, ESR
Procedure: (§5) (A) Aortic […] was measured by DHE probe and HPLC. (B) Endothelial NO was analyzed by ESR and Fe(DETC)2. C57Bl/6J mice were infused with Ang II ([…]) and mito2HOBA was provided in the drinking water (0.1 g/L).
(§6) The present inventors examined vascular oxidative stress by measurements of aortic ? using fluorescent ? probe DHE and HPLC, and analysis of endothelial NO using Electron Spin Resonance and specific NO spin trap Fe(DETC)2.
(§7) Among the other actions O2^• inactivates endothelial nitric oxide (NO), promotes vasoconstriction and vascular remodeling and ultimately increases systemic vascular resistance. Decreased NO bioavailability is therefore a hallmark of endothelial oxidative stress in hypertension due to NO oxidation, reduced NO production and eNOS uncoupling. We measured aortic O2^• using the fluorescent O2^• probe DHE and HPLC as we described previously. Endothelial NO was quantified by Electron Spin Resonance (ESR) and specific NO spin trap Fe(DETC)2.

CypD acetylation = experiment: Western blot of aorta mitochondria for GCN5L1, Sirt3, Ac-K and CypD acetylation in Ang II-infused mice; type: in vivo; conditions: 0.1 g/L in drinking water; for CypD acetylation: CypD i.p. and anti-Acetyl-K WB
Procedure: as §3, §4
Hypertension impairs mitochondrial function and mito2HOBA attenuates mitochondrial dysfunction, and accumulation of mitochondrial isoLG in hypertension promotes CypD acetylation and mPTP opening, impairs mitochondrial respiration and reduces ATP. Scavenging of mitochondrial isoLG with mito2HOBA prevents these deleterious effects. The inventors analyzed kidney tissue isolated from control mice (Sham), mice drinking mito2HOBA, mice infused with Ang II and Ang II-infused mice supplemented with mito2HOBA (mito2HOBA+Ang II).

[4] = Procedure: as §1
The above example is a water soluble compound which can be supplied to cells in the media and provided to animals in the drinking water.

[5] = test system: Ang II-infused C57Bl/6J mice; experiment: Blood pressure in angiotensin II-induced hypertension, mito2HOBA in drinking water; type: in vivo; conditions: Ang II 0.7 mg/kg/day, compound 0.1 g/L in drinking water
Procedure: as §3
(A) Blood pressure in C57Bl/6J wild type mice infused with either saline (Sham) or Ang II ([…]). Mito2HOBA was supplemented in drinking water (0.1 g/L). (B) Mitochondrial isoLG were measured by Western blot in the heart mitochondria using D11 antibody as we have previously described. Results are mean±SEM. *P<0.01 vs Sham, **P<0.01 vs Ang II (n=8).
as §4
The present inventors implanted an osmotic minipump with Ang II (0.7 mg/kg/day) or saline (Sham) in C57Bl/6J mice receiving mito2HOBA in the drinking water (0.1 g/L) or plain water. […]

mice = experiment: Tolerability in mice receiving compound in drinking water; type: in vivo
[6] = test system: isoLG-Lysyl-Lactam protein adducts; experiment: LC/MS/MS of isoLG-Lys-Lactam protein adducts in kidney mitochondria of Ang II-infused mice; type: in vivo; conditions: 0.1 g/L in drinking water
Procedure: (A) Representative LC/MS/MS chromatograms; (B) isoLG-Lys-Lactam levels in mitochondria isolated from kidneys of mice drinking water (Sham), mito2HOBA (0.1 g/L), and infused with Ang II (0.7 mg/kg/day). Results are mean±SEM (n=3). *P<0.05 vs Ang II.

[7] = test system: human aortic endothelial cells (HAEC); experiment: Cardiolipin oxidation in HAEC incubated with Ang II plus TNFα (LC/MS); type: cell-based; conditions: 50 nM, Ang II + TNFα 24 hours
Procedure: as §1, §2

kidney mitochondria = conditions: Ang II-infused mice, 0.1 g/L in drinking water
Procedure: C57Bl/6J mice were infused with Ang II ([…]) and mito2HOBA in the drinking water (0.1 g/L). Following 14 days of Ang II infusion the animals were sacrificed and kidneys were isolated for mitochondrial studies. […] Respiratory control ratio (State 3/State 4) was measured in isolated kidney mitochondria with glutamate and malate […]. Control level is 100%. (B) Kidney ATP was measured in freshly isolated tissue by luciferase-based luminescent assay. Results are mean±SEM. *P<0.01 vs Sham, **P<0.01 vs Ang II (n=3-8).
(A) Respiratory control ratio (State 3/State 4) was measured in isolated kidney mitochondria with glutamate and malate. Control level is 100%. (B) Kidney ATP level was measured in freshly isolated tissue by luciferase-based luminescent assay. C57Bl/6J mice were infused with Ang II ([…]) and mito2HOBA was provided in the drinking water (0.1 g/L). Following 14 days of Ang II infusion the animals were sacrificed and kidneys were isolated for mitochondrial and ATP studies. Results are mean±SEM. *P<0.01 vs Sham, **P<0.01 vs Ang II (n=3-8).
The inventors analyzed kidney tissue isolated from control mice (Sham), mice drinking mito2HOBA, mice infused with Ang II and Ang II-infused mice supplemented with mito2HOBA (mito2HOBA+Ang II).
To show this, the present inventors analyzed kidney tissue isolated from control mice (Sham), mice drinking mito2HOBA (mito2HOBA), mice infused with Ang II (Ang II) and Ang II-infused mice supplemented with mito2HOBA (mito2HOBA+Ang II).

[8] = test system: human aortic endothelial cells (HAECs); experiment: Tolerability in cultured HAEC; type: cell-based
aortic superoxide = experiment: Aortic superoxide by DHE probe and HPLC in Ang II-infused mice; type: in vivo; conditions: 0.1 g/L in drinking water
Procedure: as §5, §6, §7

Compound: CC1(C)CC(NC(=O)C[P+](c2ccccc2)(c2ccccc2)c2ccccc2)CC(C)(C)N1[O] [mitoTEMPO]
- concentration within the mitochondrial matrix (mitochondrial matrix): more than a five hundred-fold

Compound: 4-(aminomethyl)-3-hydroxyphenoxy) butyl)triphenylphosphonium [mito2HOBA]
- mitochondrial superoxide production / mitochondrial oxidative stress [1]: inhibited; also recorded: diminished mitochondrial oxidative stress; also recorded: inhibition of mitochondrial oxidative stress
- isoLG adducts in aorta mitochondria ([2]; Ang II-infused mice, 0.1 g/L in drinking water, 14 days, D11 antibody): prevents accumulation of isoLG adducts; also recorded: attenuated accumulation of mitochondrial isoLG
- protein isoLG adducts and CypD-isoLG in aortic mitochondria ([2]; CypD immunoprecipitation and Western blot with D11 antibody): diminished
- isoLG adducts in heart mitochondria [3]: reduced accumulation of isoLG adducts
- endothelial NO (endothelial NO): preserved endothelial NO; also recorded: preserves NO bioavailability
- balance between GCN5L1 and Sirt3 in aorta mitochondria (CypD acetylation): corrects the imbalance between GCN5L1 and Sirt3
- mitochondrial Ac-K (acetylation of mitochondrial proteins) (CypD acetylation): reduces mitochondrial Ac-K
- CypD acetylation (CypD acetylation): reduced CypD acetylation
- CypD acetylation (CypD acetylation; listed as Mito2HOBA): prevents CypD hyperacetylation
- water solubility [4]: water soluble
- Ang II-induced hypertension (blood pressure) [5]: significantly attenuates
- Ang II-induced hypertension (blood pressure) ([5]; listed as Mito2HOBA): significantly attenuated
- tolerability by mice receiving it in drinking water (mice): well tolerated
- dose in drinking water well tolerated (mice; preliminary in vivo experiments): 0.1 to 0.3 g/L
- isoLG-Lysyl-Lactam protein adducts in kidney mitochondria [6]: abolished isoLG-Lysyl-Lactam adducts formation
- cardiolipin oxidation [7]: prevented cardiolipin oxidation
- cardiolipin oxidation ([7]; listed as Mito2HOBA): more effective in prevention of cardiolipin oxidation than 2HOBA
- mPTP opening (Ca2+ retention capacity) in kidney mitochondria (kidney mitochondria; 14 days): attenuates mPTP opening; also recorded: reduces mPTP opening
- mitochondrial respiration (respiratory control ratio State 3/State 4) (kidney mitochondria; kidney mitochondria with glutamate and malate): protects mitochondrial respiration
- kidney ATP (kidney mitochondria; luciferase-based luminescent assay): preserves normal ATP production
- tolerability by cultured HAECs [8]: well tolerated
- concentration well tolerated by cultured HAECs ([8]; preliminary in vitro experiments): up to 200 nM
- vascular (aortic) superoxide (aortic superoxide): reduced; also recorded: reduces vascular O2^•
